# Assays:
# [1] = tested on: OsWRKY45; settings: rice; cited from earlier work
# [2] = tested on: salicylic acid-dependent defense pathway and jasmonic acid-dependent defense pathway; test: Defense gene expression (PR1, PDF1.2) in Arabidopsis seedlings, real-time RT-PCR; type: in vivo, Arabidopsis thaliana; settings: Arabidopsis seedlings on MS plates containing compound for 3 or 6 days (FIG. 2)
# Method: (§1) Total RNA was isolated from plant cells using Trizol (Invitrogen, Carlsbad, Calif., USA) reagent in accordance with the manufacturer's protocol and quantified using a spectrophotometer. First-strand cDNA was synthesized from 3 μg total RNA with an oligo-dT primer and reverse transcriptase.
# (§2) Real-time PCR was performed using an ABI PRISM 7300 sequence detection system (Applied Biosystems, Foster City, Calif., USA) with SYBR Green real-time PCR Master Mix (TOYOBO, Osaka, Japan) and the gene-specific primers. PCR amplification was performed with an initial denaturation at 95° C. for 10 min followed by 40 cycles of incubations at 95° C. for 15 s, 60° C. for 15 s, and 72° C. for 45 s. Relative mRNA abundances were calculated using the comparative Ct method. Actin or tubulin was used as an internal control. The following primers were used in the experiment.
# Arabidopsis seedlings were grown on MS plate for 12 days and then the seedlings were transferred to MS plates containing chemical compounds. After grown for 3 or 6 days, the samples for RNA extraction were collected.
# [3] = tested on: innate immunity in tobacco plant; test: Innate immunity gene expression (PR1a, PR1b) in tobacco seedlings after cryptogein; type: in vivo, Nicotiana tabacum; settings: 6 days on compound, cryptogein 2000 nM, 0, 1 and 24 h (FIG. 4)
# Method: as §1, §2
# Tobacco seedlings were grown on MS plate for 7 days and then the seedlings were transferred to MS plates containing chemical compounds. After grown for 6 days, cryptogein (2000 nM) was added to the medium and the samples for RNA extraction were collected at the indicated time (0, 1 and 24 h).
# [4] = tested on: innate immunity in rice; test: Innate immunity gene expression (PBZ1, WRKY45) in rice seedlings after N-acetylchitoheptaose; type: in vivo, Oryza sativa; settings: 2 days on compound, [GlcNAc]7 10 μM, observed 24 hours after elicitor (FIG. 5)
# [5] = tested on: Pseudomonas syringae pv tomato (Pst) DC3000; test: Pathogen infection assay in Arabidopsis thaliana (Col-0); type: in vivo; settings: Arabidopsis thaliana (Col-0) irrigated with compound for 5 days, dip inoculation with Pst DC3000, 3 days (FIG. 3)
# Method: Arabidopsis thaliana (Col-0) were grown in sterilized potting soil (Kureha) in plastic pots (5 cm×5 cm×5 cm) inside a growth chamber under a 16 h-8 h light-dark regimen at 22° C. with 60% humidity. After grown for 3 weeks, plants were irrigated with chemical compounds for 5 days.
# Pseudomonas syringae pv tomato (Pst) DC3000 was cultured in nutrient broth medium (Eiken Chemical) for 24 h at 28° C., and a bacterial suspension was prepared in 10 mM MgCl2 (2×10^5 colony-forming units per mL). Challenge inoculation was performed by dipping the plants in bacterial solution. After incubation for 3 days at 22° C., the leaves were harvested from the inoculated plants. Three to four leaves from different plants were combined, weighed, and then homogenized in 10 mM MgCl2; the homogenate was then plated on nutrient broth agar containing rifampicin (50 mg/L) at appropriate dilutions. After incubation for 2 days at 28° C., the number of rifampicin-resistant bacterial colonies was counted. More than six homogenized samples were prepared for each experiment.
# [6] = tested on: tobacco leaves; test: Salicylic acid accumulation in tobacco leaves after cryptogein; type: in vivo; settings: tobacco leaves treated with 2,000 nM cryptogein; range from several thousand, varying with conditions
# Method: In the case of tobacco BY-2 cells compared to normal tobacco plant, the salicylic acid accumulation level of untreated tobacco BY-2 cells is from 10 to 20 ng/g (fresh weight), while the salicylic acid accumulation level of untreated tobacco leaves is several hundred ng/g (fresh weight). When treated with 2,000 nM cryptogein, the salicylic acid accumulation level of treated tobacco BY-2 cells increases to a level of approximately from 100 to 150 ng/g (fresh weight), while the salicylic acid accumulation level of treated tobacco leaves increases to, though varying depending on conditions, a level in the range of from several thousand ng/g (fresh weight) to 10,000 ng/g (fresh weight).
Molecule,activation of salicylic acid-dependent and jasmonic acid-dependent defense pathways [2],enhancement of immune response after treatment with cryptogein [3],also measured
"c1ccc2snnc2c1 [BTH, benzothiadiazole]",,,time to upregulation of OsWRKY45 after treatment [1]: ≤ 3 h
"O=c1cc(N2CCNCC2)oc2c(-c3ccccc3)cccc12 [Compound 2, LY303511]",activated both the salicylic acid-dependent defense pathway and the jasmonic acid-dependent defense pathway,enhanced an immune response,
"Cn1cnc(=N)c2nc[nH]c21 [Compound 3, 3MA]",activated both the salicylic acid-dependent defense pathway and the jasmonic acid-dependent defense pathway,enhanced an immune response,enhancement of immune response after elicitor application [4]: enhanced an immune response; resistance to a plant disease [5]: effective in enhancing resistance to a plant disease
"cryptogein (protein, UniProt P15570 21-118, looked up, an elicitin derived from oomycete, Phytophthora cryptogea; trigger material (elicitor)) Beta-elicitin cryptogein: TACTATQQTAAYKTLVSILSDASFNQCSTDSGYSMLTAKALPTTAQYKLMCASTACNTMIKKIVTLNPPNCDLTVPTSGLVLNVYSYANGFSNKCSSL",,,"salicylic acid accumulation level [6]: ≤ 10,000 ng/g (fresh weight)"

# Reference: patent publication US9739767B2, “Method of screening for plant defense activators, plant defense activators, and method of enhancing immune response” (TOKYO UNIVERSITY OF SCIENCE FOUNDATION, priority 2010, dated 2017)
